Test results as given in US20050209157A1, “Short bioactive peptides and methods for their use” (priority 2001, published 2005).
Where “and” joins values, the source holds several entries; their conditions need not be identical. Equal values may be shown once. Read-outs that look alike come from different tables or passages of the source. No end group written: not given here.

Experiments:
[1] = system: Pseudomonas aeruginosa 105663; assay type: cell-based; conditions: Table 9; in µg/mL
P. aeruginosa H374 [2] = assay type: cell-based, Pseudomonas aeruginosa; conditions: for MIC P. aeruginosa H374: Table 9, in µg/mL
[3] = system: Pseudomonas aeruginosa 100609; assay type: cell-based; conditions: Table 9; in µg/mL
[4] = system: Pseudomonas aeruginosa H187; assay type: cell-based; conditions: in µg/mL
[5] = system: Candida glabrata ATCC15126; assay: Antimicrobial assays II, NCCLS broth microdilution MIC; assay type: cell-based; conditions: Table 8; in µg/mL
S. pyogenes ATCC19615 = assay: as above; assay type: cell-based, Streptococcus pyogenes; conditions: mean of three, in µg/mL
S. epidermidis C621 = assay type: cell-based, Staphylococcus epidermidis; conditions: mean of three; 16 to 20 hours at 35° C.
S. pyogenes M76 = assay: Antimicrobial assays II, NCCLS broth microdilution MIC; assay type: cell-based, Streptococcus pyogenes; conditions: mean of three; 16 to 20 hours at 35° C.
in vitro [6] = assay type: cell-based, human; conditions: human, human red blood cells, pH 7, hemolytic assay, concentration at 50% hemolysis, 1 hour at 37° C.; read-out: LD50
S. pneumoniae C719 = assay: Antimicrobial assays II, NCCLS broth microdilution MIC; assay type: cell-based, Streptococcus pneumoniae; conditions: mean of three, in µg/mL
H1299 = assay: Anti-cancer assay, MTT, LD50; assay type: cell-based; conditions: 24 hours with peptide, lung large cell carcinoma
Description: (§1) Numbers are LD50 values (μg/mL).

MCF7 = assay: Anti-cancer assay, MTT, LD50; assay type: cell-based; conditions: MCF7 breast adenocarcinoma line, MTT, 24 hours with peptide
Description: as §1

PC3 = assay: Anti-cancer assay, MTT, LD50; assay type: cell-based; conditions: 24 hours with peptide, prostate adenocarcinoma
Description: as §1

BMKC = assay: Anti-cancer assay, MTT, LD50; assay type: cell-based; conditions: BMKC cloned melanoma line, 24 hours with peptide
Description: as §1

SW480 = assay: Anti-cancer assay, MTT, LD50; assay type: cell-based; conditions: SW480 colon adenocarcinoma line, 24 hours with peptide
Description: as §1

HeLaS3 = assay: Anti-cancer assay, MTT, LD50; assay type: cell-based; conditions: 24 hours with peptide, cervical carcinoma
Description: as §1

S. pneumoniae C718 = assay: Antimicrobial assays II, NCCLS broth microdilution MIC; assay type: cell-based, Streptococcus pneumoniae; conditions: mean of three
S. aureus (MRSA) = assay type: cell-based, Staphylococcus aureus; conditions: mean of three; 16 to 20 hours at 35° C.
E. coli UB1005 = assay type: cell-based, Escherichia coli; conditions: mean of three; 16 to 20 hours at 35° C.; in µg/mL
[7] = system: yeast (Saccharomyces cerevisiae); assay: Antimicrobial assay I, yeast assay in RPMI 1640; assay type: cell-based; conditions: RPMI 1640 media
WI38 = conditions: MTT, 24 hours with peptide; normal fibroblast line
Description: (§3) Viability of cells is determined by the dye response. In the following procedure, approximately 1.5×10^4 cells per well were added and viability was determined with the cells in a semi-confluent state. The assay was performed in a 96-well microtiter plate. After addition of peptide, the plate was set for 24 hours. MTT (5 mg/ml in phenol red-free RPMI-1640, 20 μl) was added to each well including positive control wells untreated with peptide. The plate was incubated at 37° C. for 4 hours. The liquid contents of each well was removed, and isopropanol with 0.1 M HCl (100 μl) was added to each well. The plate was sealed with parafilm to prevent evaporation of the isopropanol. The plate is allowed to rest for 5-10 minutes in order to solubilize the precipitate. Purified water (100 μl) was added to each well. Absorbance was determined with an ELISA Reader instrument. Color intensity at 540 nm is proportional to viability of cells.
(§4) WI38 (ATCC No. CCL75) is a normal fibroblast line of lung diploid cells, MCF7 (ATCC No. HTB22) is a breast adenocarcinoma tumor cell line, SW480 (ATCC No. CCL228) is a colon adenocarcinoma tumor cell line, BMKC is a cloned melanoma line derived from Bowes melanoma line HMCB (ATCC No. CRL9607), H1299 (ATCC No. CRL5803) is a lung large cell carcinoma tumor line, HeLaS3 (ATCC No. CCL2.2) is a cervical epitheleal carcinoma tumor cell line, and PC3 (ATCC No. CRL1435) is a prostate adenocarcinoma tumor cell line.

S. typhimurium 14028S = assay type: cell-based, Salmonella typhimurium; conditions: mean of three; 16 to 20 hours at 35° C.; in µg/mL
in vitro [8] = conditions: human, WI38 normal lung fibroblast cells, LD50 WI38, WI38 normal lung fibroblast line, MTT, 24 hours with peptide
Description: as §3, §4

[9] = system: Pseudomonas aeruginosa ATCC 9027; assay: Antimicrobial assay I, MIC by OD measurement; assay type: cell-based; conditions: 37° C. for 24 hours, absorbance 620 nm
[10] = system: Staphylococcus aureus ATCC 6538; assay: Antimicrobial assay I, MIC by OD measurement; assay type: cell-based; conditions: 37° C. for 24 hours, absorbance 620 nm
P. aeruginosa = assay type: cell-based, Pseudomonas aeruginosa; conditions: P. aeruginosa H744; MIC of nalidixic acid with peptide at ¼ MIC
Outline: (§2)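 FIC index, computed as 0.25 plus the ratio of combination to single-agent antibiotic MIC, defines synergy when 0.5 or below. Peptide fixed at one quarter MIC while chloramphenicol or nalidixic acid was serially diluted two-fold; antibiotic-alone MICs served as baselines.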

P. aeruginosa H374 [11] = assay type: cell-based, Pseudomonas aeruginosa; conditions: for MIC Cm-comb.: MIC of chloramphenicol with peptide at ¼ MIC; for MIC Nal-comb.: MIC of nalidixic acid with peptide at ¼ MIC; for FIC Index: 0.5 or less = synergy
Outline: as §2

P. aeruginosa H774 = assay type: cell-based, Pseudomonas aeruginosa; conditions: P. aeruginosa H744; nalidixic acid + peptide at ¼ MIC; 0.5 or less = synergy
Outline: as §2

[12] = chloramphenicol + peptide at ¼ MIC
[13] = nalidixic acid + peptide at ¼ MIC, FIC=0.25+MIC comb/MIC alone

| Compound | MIC P. aeruginosa Tb 105663 [1] | MIC P. aeruginosa H374 (P. aeruginosa H374 [2]) | MIC P. aeruginosa Tb 100609 [3] | MIC P. aeruginosa H187 ([4]; Table 9) | MIC C. glabrata ATCC15126 [5] | MIC P. aeruginosa H187 ([4]; Table 8) | S. pyogenes MIC (S. pyogenes ATCC19615) | S. epidermidis C621 MIC (S. epidermidis C621) | S. pyogenes M76 MIC (S. pyogenes M76) | HC50 at 1 h (in vitro [6]) | S. pneumoniae MIC (S. pneumoniae C719) | H1299 LD50 (H1299) | LD50 MCF7 (MCF7) | PC3 LD50 (PC3) | LD50 BMKC (BMKC) | LD50 SW480 (SW480) | HeLaS3 LD50 (HeLaS3) | S. pneumoniae MIC (S. pneumoniae C718) | S. aureus (MRSA) MIC (S. aureus (MRSA)) | yeast (MIC or MFC) [7] | further results |
| --- | --- | --- | --- | --- | --- | --- | --- | --- | --- | --- | --- | --- | --- | --- | --- | --- | --- | --- | --- | --- | --- |
| CC(C)C[C@H](NC(=O)[C@H](C)NC(=O)[C@H](CC(C)C)NC(=O)[C@H](C)NC(=O)[C@H](CC(C)C)NC(=O)[C@H](CCCCN)NC(=O)[C@H](C)NC(=O)[C@H](CC(C)C)NC(=O)[C@H](CCCCN)NC(=O)[C@H](CCCCN)NC(=O)[C@H](C)NC(=O)[C@H](CC(C)C)NC(=O)[C@H](CCCCN)NC(=O)[C@H](CCCCN)NC(=O)[C@H](CC(C)C)NC(=O)[C@H](CCCCN)NC(=O)[C@H](CCCCN)NC(=O)[C@H](C)NC(=O)[C@H](CC(C)C)NC(=O)[C@H](CCCCN)NC(=O)[C@H](CCCCN)NC(=O)[C@H](C)NC(=O)[C@@H](N)Cc1ccccc1)C(N)=O [P11 (4)] | 16 | 16 | 16 | 16 |  |  |  |  |  |  |  |  |  |  |  |  |  |  |  |  |  |
| CC(C)C[C@H](NC(=O)[C@H](C)NC(=O)[C@H](CC(C)C)NC(=O)[C@H](CCCCN)NC(=O)[C@H](C)NC(=O)[C@H](CC(C)C)NC(=O)[C@H](CCCCN)NC(=O)[C@H](CCCCN)NC(=O)[C@H](C)NC(=O)[C@H](CC(C)C)NC(=O)[C@H](CCCCN)NC(=O)[C@H](C)NC(=O)[C@H](CC(C)C)NC(=O)[C@H](CCCCN)NC(=O)[C@H](CCCCN)NC(=O)[C@H](C)NC(=O)[C@@H](N)Cc1ccccc1)C(=O)O [P61 (41)] | 8 | 4 | 16 | 8 | 32 | 8 |  |  |  |  |  |  |  |  |  |  |  |  |  |  |  |
| CC[C@H](C)[C@H](N)C(=O)N[C@@H](CC(C)C)C(=O)N1CCC[C@H]1C(=O)N[C@@H](Cc1c[nH]c2ccccc12)C(=O)N[C@@H](CCCCN)C(=O)N[C@@H](Cc1c[nH]c2ccccc12)C(=O)N1CCC[C@H]1C(=O)N[C@@H](Cc1c[nH]c2ccccc12)C(=O)N[C@@H](Cc1c[nH]c2ccccc12)C(=O)N1CCC[C@H]1C(=O)N[C@@H](Cc1c[nH]c2ccccc12)C(=O)N[C@@H](CCCNC(=N)N)C(=O)N[C@@H](CCCNC(=N)N)C(N)=O [P63, reference compound] |  |  |  |  |  |  | 8 | 16 µg/mL | 8 µg/mL | 375 µg/mL | 16 | 270 µg/mL | 64 µg/mL | 290 µg/mL | 200 µg/mL | 345 µg/mL | 345 µg/mL | 128 µg/mL | 32 µg/mL |  |  |
| FAKKLAKKLKKLAKKLAK-OH [P71 (47)] | 16 | 4 | 16 | 8 | 32 | 8 |  |  |  |  |  |  |  |  |  |  |  |  |  |  |  |
| FAKKLAKKLKKLAKLALAK-NH2 [P41 (23)] | 8 | 4 | 8 | 8 | 32 | 8 |  |  |  |  |  |  |  |  |  |  |  |  |  |  |  |
| FAKKLAKLAKKALAL-NH2 [P39 (21)] | 32 | 16 | 32 | 32 | 16 | 32 |  |  |  |  |  |  |  |  |  |  |  |  |  |  |  |
| FAKKLKKLAKLAKKL-NH2 [P46 (28)] | 32 | 4 | 16 | 16 | 32 | 8 and 16 |  |  |  |  |  |  |  |  |  |  |  |  |  |  |  |
| FAKKLKKLAKLAKKL-NH2 [P46] |  |  |  |  |  |  | 16 | 8 µg/mL | 8 µg/mL | 900 µg/mL | 128 | 290 µg/mL | 300 µg/mL | 280 µg/mL | 150 µg/mL | 160 µg/mL | 280 µg/mL | 64 µg/mL | 64 µg/mL | 50 µg/mL | E. coli UB1005 MIC (E. coli UB1005): 8 and 4; WI38 LD50 (WI38): 200 µg/mL; P. aeruginosa H374 MIC (P. aeruginosa H374 [2]; mean of three, 16 to 20 hours at 35° C.): 4 µg/mL; S. typhimurium 14028S MIC (S. typhimurium 14028S): 16 and 8; CC50 at 24 h (in vitro [8]): 200 µg/mL; paerug9027 (MIC) [9]: 5 µg/mL; staph6538 (MIC) [10]: 10 µg/mL; MIC Nal-comb. (P. aeruginosa): 624 µg/mL; MIC Cm-comb. (P. aeruginosa H374 [11]): 8 µg/mL; MIC Nal-comb. (P. aeruginosa H374 [11]): 2500 µg/mL; FIC Index (P. aeruginosa H374 [11]; [12]): 0.75; FIC Index (P. aeruginosa H374 [11]; [13]): 0.75; FIC Index (P. aeruginosa H774): 1.25 |
| FAKLLAKLAKKAL-NH2 [P54, FAKLLAKLAKKAL-NH2] |  |  |  |  |  |  | 8 | 8 µg/mL | 8 µg/mL | 250 µg/mL | 64 | 80 µg/mL | 60 µg/mL | 90 µg/mL | 90 µg/mL |  | 190 µg/mL | 64 µg/mL | 16 µg/mL | 50 µg/mL | WI38 LD50 (WI38): 97 µg/mL; CC50 at 24 h (in vitro [8]): 97 µg/mL; paerug9027 (MIC) [9]: 50 µg/mL; staph6538 (MIC) [10]: 5 µg/mL; MIC Nal-comb. (P. aeruginosa): 624 µg/mL; MIC Cm-comb. (P. aeruginosa H374 [11]): 16 µg/mL; MIC Nal-comb. (P. aeruginosa H374 [11]): 5000 µg/mL; FIC Index (P. aeruginosa H374 [11]; [12]): 1.25; FIC Index (P. aeruginosa H374 [11]; [13]): 1.25; FIC Index (P. aeruginosa H774): 1.25 |
| FAKLLAKLAKKL-NH2 [P49] |  |  |  |  |  |  | 8 | 8 µg/mL | 8 µg/mL | 225 µg/mL | 32 | 140 µg/mL | 40 µg/mL | 77 µg/mL | 115 µg/mL | 100 µg/mL |  | 64 µg/mL | 64 µg/mL | 50 µg/mL | WI38 LD50 (WI38): 135 µg/mL; CC50 at 24 h (in vitro [8]): 135 µg/mL; paerug9027 (MIC) [9]: 200 µg/mL; staph6538 (MIC) [10]: 10 µg/mL; MIC Nal-comb. (P. aeruginosa): 624 µg/mL; MIC Cm-comb. (P. aeruginosa H374 [11]): 8 µg/mL; MIC Nal-comb. (P. aeruginosa H374 [11]): 2500 µg/mL; FIC Index (P. aeruginosa H374 [11]; [12]): 0.75; FIC Index (P. aeruginosa H374 [11]; [13]): 0.75; FIC Index (P. aeruginosa H774): 1.25 |
| FALALKALKKALKKLKKALKKAL-NH2 [P2 (2)] | 16 | 16 | 32 | 16 |  |  |  |  |  |  |  |  |  |  |  |  |  |  |  |  |  |
| FALALKALKKALKKLKKALKKAL-NH2 [P2, reference compound] |  |  |  |  |  |  | 8 | 8 µg/mL | 4 µg/mL | 10 µg/mL | 32 | 140 µg/mL | 23 µg/mL | 44 µg/mL | 128 µg/mL | 46 µg/mL | 50 µg/mL | 128 µg/mL | 32 µg/mL | 25 µg/mL | WI38 LD50 (WI38): 66 µg/mL; CC50 at 24 h (in vitro [8]): 66 µg/mL; paerug9027 (MIC) [9]: 100 µg/mL; staph6538 (MIC) [10]: 25 µg/mL |
